Experimental data: patent US7015022B2, “Mammalian catalase-dependent oxidation processes and methods for stimulating oxidative activities” (University of Medicine & Dentistry of New Jersey, priority 2002, dated 2006)
Entries after “also recorded” stand apart in the source; their conditions may differ.

Columns and labels:
mammalian catalase [1] = target: T1, mammalian catalase (Bos taurus, UniProt P00432); experiment: Competition with AMPLEX-RED: inhibition of the AMPLEX-RED catalase oxidase reaction; type: biochemical, bovine; conditions: for inhibition of the AMPLEX-RED catalase oxidase activity: catalase 1 mg/ml in reaction buffer, no concentration given; for kind of inhibition of the AMPLEX-RED oxidase reaction (kinetic analysis): competitive or noncompetitive; for inhibition of the oxidation of AMPLEX-RED to resorufin by catalase: concentrations ranging from 0.005 mM to 0.1 mm or greater; for Ki: calculated from kinetic analysis, catalase 1 mg/ml, read-out: Ki for inhibition of the AMPLEX-RED catalase oxidation reaction
T1 construct: purified catalases obtained from a variety of sources including enzyme from mouse and bovine liver; purchased Sigma Chemical Co., St. Louis, Mo; host or cells: liver tissue (mouse and bovine named)
T1 sequence (P00432 2-527 limits assumed): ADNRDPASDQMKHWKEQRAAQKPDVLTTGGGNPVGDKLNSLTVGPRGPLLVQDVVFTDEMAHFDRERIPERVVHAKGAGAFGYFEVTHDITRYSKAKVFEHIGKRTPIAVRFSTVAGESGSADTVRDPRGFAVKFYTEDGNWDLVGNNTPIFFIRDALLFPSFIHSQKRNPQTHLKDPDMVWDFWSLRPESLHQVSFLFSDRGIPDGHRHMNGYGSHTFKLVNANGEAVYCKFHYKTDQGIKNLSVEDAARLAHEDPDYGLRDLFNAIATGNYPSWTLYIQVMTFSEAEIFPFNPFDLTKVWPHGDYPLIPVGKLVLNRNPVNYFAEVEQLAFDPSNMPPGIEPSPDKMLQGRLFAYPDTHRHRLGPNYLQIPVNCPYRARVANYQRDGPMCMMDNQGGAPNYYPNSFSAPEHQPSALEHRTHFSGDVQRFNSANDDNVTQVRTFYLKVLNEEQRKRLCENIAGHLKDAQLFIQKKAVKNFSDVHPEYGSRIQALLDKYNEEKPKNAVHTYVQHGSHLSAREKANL
Description: Catalases were purchased from Sigma Chemical Co., St. Louis, Mo. Reactions were carried out in buffer consisting of 50 mM phosphate buffer, pH 7.4 and 1.0 mg/ml of the catalase at room temperature (22° C.) in a reaction volume of 0.1 ml. […] Standard reaction mixtures contain 20 nmoles of the substrate. Detection of the fluorescent product resorufin was measured using an HTS 7000 Plus Bio Assay Reader (Perkin Elmer, Beaconsfield, Buckinghamsire, UK) using a 540 nm excitation filter and a 595 nm emission filter.

catalase = target: T2, catalase (Bos taurus, UniProt P00432); experiment: Accelerating catalase oxidation of DCFH-DA with UV light; type: biochemical; conditions: DCFH-DA 5 μM, catalase 1 mg/ml
T2 sequence (P00432 2-527 limits assumed): T1 sequence (P00432 2-527 limits assumed)
Description: The present invention also relates to methods for accelerating the oxidation of substrates by catalase by exposure to ultraviolet light. For purposes of the present invention, by “accelerate” or “accelerating” it is meant that the rate at which catalase oxidizes a substrate is increased when exposed to ultraviolet light as compared the rate of oxidation of the substrate by catalase in the absence of ultraviolet light. In this method, a substrate is added to mammalian catalase and the mixture is then treated with low doses of ultraviolet light to accelerate oxidation of the substrate. In a preferred embodiment of this method, the low dose of ultraviolet radiation ranges between 2.5 and 25 mJ/cm^2 at a wavelength of UVB light that is between 290 and 320 nm. […] For example, the substrate DCFH-DA was added to a reaction mixture containing catalase in sodium phosphate buffer. The samples were then exposed to increasing doses of ultraviolet light (UVB, 290–320 nm).
Samples were then exposed to increasing doses of ultraviolet light (UVB, 290–320 nm) emitted from a bank of two FS20 UVB light bulbs (Sylvania).

mammalian catalase [2] = target: T1, mammalian catalase; experiment: Oxidation of substrates by catalase oxidase activity (absorbance or fluorescence); type: biochemical, bovine; conditions: in the absence of hydrogen peroxide
Description: The oxidation of multiple substrates depicted in Table 1 with time was measured using an HTS 7000 Plus Bio Assay Reader using standard catalase reaction mixes (0.5 mg/ml catalase in 50 mM phosphate buffer, pH 7.4). Pyrogallol oxidation (1 mM) was measured by the increase in absorbance at 430 nm. Oxidation of ABTS (1 mM) was measured as the […] in absorbance at 430 nm. Oxidation of catechol (1 mM) was measured as the increase in absorbance at 420 nm. Oxidation of DCFH (5 μM) by catalase was measured as the increase in fluorescence over time with a 485 nm excitation filter and a 520 nm emission filter.

Compound: Nc1nc[nH]n1 [3-amino-1,2,4-triazole]
- inhibition of the AMPLEX-RED catalase oxidase activity (mammalian catalase [1]): inhibits

Compound: COc1cc(-c2ccc(N)c(OC)c2)ccc1N [DMB, 3,3′-dimethoxybenzidine]
- kind of inhibition of the AMPLEX-RED oxidase reaction (kinetic analysis) (mammalian catalase [1]): competitive inhibitors
- inhibition of the oxidation of AMPLEX-RED to resorufin by catalase (mammalian catalase [1]): inhibition

Compound: Oc1cccc(O)c1O [pyrogallol, 1,2,3-trihydroxybenzene(pyrogallol)]
- Ki (mammalian catalase [1]): 1680 µM
- kind of inhibition of the AMPLEX-RED oxidase reaction (kinetic analysis) (mammalian catalase [1]): competitive inhibitors
- inhibition of the oxidation of AMPLEX-RED to resorufin by catalase (mammalian catalase [1]): inhibition

Compound: Nc1ccc(-c2ccc(N)c(N)c2)cc1N [DAB, 3,3′-diaminobenzidine]
- inhibition of the AMPLEX-RED catalase oxidase activity (mammalian catalase [1]): inhibitors
- kind of inhibition of the AMPLEX-RED oxidase reaction (kinetic analysis) (mammalian catalase [1]): competitive inhibitors
- inhibition of the oxidation of AMPLEX-RED to resorufin by catalase (mammalian catalase [1]): inhibition

Compound: Oc1ccccc1O [DHB, 1,2-dihydroxybenzene(catechol)]
- kind of inhibition of the AMPLEX-RED oxidase reaction (kinetic analysis) (mammalian catalase [1]): competitive inhibitors
- inhibition of the oxidation of AMPLEX-RED to resorufin by catalase (mammalian catalase [1]): inhibition

Compound: CC(=O)Oc1cc2c(cc1Cl)C(c1ccccc1C(=O)O)c1cc(Cl)c(OC(C)=O)cc1O2 [DCFH-DA, 2′,7′-dichlorodihydrofluoresceindiacetate]
- oxidation of DCFH-DA by catalase (increase in fluorescence) (catalase; absence of UVB light): Oxidation of DCFH-DA is observed; also recorded: Relatively low levels of oxidation
- oxidation of DCFH-DA by catalase (increase in fluorescence) (catalase; with UVB light 290–320 nm, increasing doses): marked enhancement
- Ki (mammalian catalase [1]): 31.6 µM
- kind of inhibition of the AMPLEX-RED oxidase reaction (kinetic analysis) (mammalian catalase [1]): competitive inhibitors
- inhibition of the oxidation of AMPLEX-RED to resorufin by catalase (mammalian catalase [1]): inhibition

Compound: O=C(OC1Cc2c(O)cc(O)cc2OC1c1cc(O)c(O)c(O)c1)c1cc(O)c(O)c(O)c1 (single isomer, unassigned; (-)) [EGCG, (−)-epigallocatechin-3-gallate]
- substrate for the catalase oxidase reaction (mammalian catalase [2]): substrate

Compound: Cc1c(N(C)C)c(=O)n(-c2ccccc2)n1C [4-dimethylaminoantipyrine]
- kind of inhibition of the AMPLEX-RED oxidase reaction (kinetic analysis) (mammalian catalase [1]): non-competitive inhibitors
- kind of inhibition of the AMPLEX-RED oxidase reaction (kinetic analysis) (mammalian catalase [1]; listed as aminopyrene): noncompetitive inhibitor
- inhibition of the oxidation of AMPLEX-RED to resorufin by catalase (mammalian catalase [1]): inhibition

Compound: 5-amino-2,3-dihydro-1,4-phthalazine-dione (luminol)
- kind of inhibition of the AMPLEX-RED oxidase reaction (kinetic analysis) (mammalian catalase [1]): competitive inhibitor

Compound: COc1cc(/C=C/C(=O)O)ccc1O [HMCA, 4-hydroxy-3-methoxycinnamicacid (ferulic acid)]
- substrate for the catalase oxidase reaction (mammalian catalase [2]): substrate
- kind of inhibition of the AMPLEX-RED oxidase reaction (kinetic analysis) (mammalian catalase [1]): competitive inhibitors
- inhibition of the oxidation of AMPLEX-RED to resorufin by catalase (mammalian catalase [1]): inhibition

Compound: CCn1/c(=N\N=c2\sc3cc(S(=O)(=O)O)ccc3n2CC)sc2cc(S(=O)(=O)O)ccc21.N.N [ABTS, 2,2′-azino-bis[3-ethylbenzthiazoline-6-sulfonic acid]]
- kind of inhibition of the AMPLEX-RED oxidase reaction (kinetic analysis) (mammalian catalase [1]): competitive inhibitors
- inhibition of the oxidation of AMPLEX-RED to resorufin by catalase (mammalian catalase [1]): inhibition
